Assay results taken from ChEMBL document CHEMBL5523667, “Blood-stage antimalarial activity, favourable metabolic stability and in vivo toxicity of novel piperazine linked 7-chloroquinoline-triazole conjugates” (Eur J Med Chem, 2024).
Calls of active or inactive are those of the source. The rule behind the calls is not given here.

Experiments:
[1] = Toxicity against mouse assessed as effect on complete blood count at 100 to 200 mg/kg measured after 7 days by automated hematology analyzer; type: organism-based; conditions: in vivo, 168 h, dose 100-200 mg/kg, time 7 day
[2] = Toxicity in mouse assessed as latency time to the central area at 100 mg/kg by open field test (reference value: 106.48 +/- 43.19 sec); type: organism-based; conditions: in vivo, 43 s
[3] = Selectivity index, ratio of IC50 for cytotoxicity against CHO cells to IC50 for antimalarial activity against chloroquine-sensitive Plasmodium falciparum NF54; type: toxicity, cell-based; conditions: hamster, CHO cells versus Plasmodium falciparum NF54; read-out: Ratio IC50
[4] = Stability of the compound in tris buffer at pH 7.4 at 1 uM measured after 120 mins by LC-MS/MS analysis; type: physicochemical; conditions: pH 7.4, 2 h
Plasmodium falciparum [5] = assay: Antimalarial activity against schizont stage Plasmodium falciparum infected in erythrocytes assessed as decrease in falcipain-mediated substrate hydrolysis by measuring reduction in fluorescence intensity of the fluorogenic peptide at 5 uM pre-incubated for 1 hr followed by Z-Phe-Arg-AMC substrate addition and measured after 5 to 10 mins by confocal microscopic analysis; type: functional, organism-based; conditions: Erythrocyte, time 65-70 min
[6] = target: T1, Falcipain-3 (Plasmodium falciparum 3D7) (UniProt Q8IIL0); assay: Inhibition of N-terminal 6His-tagged recombinant Plasmodium falciparum FP3 expressed in Escherichia coli M15 using Z-Phe-Arg-AMC as substrate at 5 uM measured after 30 mins by microplate reader analysis relative to control
T1 sequence (whole entry): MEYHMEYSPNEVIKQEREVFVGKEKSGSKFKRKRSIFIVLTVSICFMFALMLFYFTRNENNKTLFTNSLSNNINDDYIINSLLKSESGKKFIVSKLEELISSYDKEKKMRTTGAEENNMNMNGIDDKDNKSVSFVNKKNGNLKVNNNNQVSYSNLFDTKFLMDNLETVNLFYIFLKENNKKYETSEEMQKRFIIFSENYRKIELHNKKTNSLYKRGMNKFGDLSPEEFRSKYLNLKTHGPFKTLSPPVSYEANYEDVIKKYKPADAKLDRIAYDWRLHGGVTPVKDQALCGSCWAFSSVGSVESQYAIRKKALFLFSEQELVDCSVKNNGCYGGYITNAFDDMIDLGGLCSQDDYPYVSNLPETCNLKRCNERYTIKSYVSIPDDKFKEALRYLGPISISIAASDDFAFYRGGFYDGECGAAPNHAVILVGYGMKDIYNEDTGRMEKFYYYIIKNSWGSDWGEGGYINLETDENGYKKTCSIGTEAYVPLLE

Plasmodium berghei = assay: Antimalarial activity against Plasmodium berghei ANKA infected in female BALB/c mouse assessed as reduction in parasitemia at 50 to 100 mg/kg, ip administered daily for 7 days by Giemsa staining based light microscopy; type: functional, organism-based; conditions: dose 50-100 mg/kg, time 7.0 day
Plasmodium falciparum [7] = assay: Antimalarial activity against chloroquine-resistant Plasmodium falciparum K1 assessed as inhibition of parasite growth by lactate dehydrogenase assay; type: functional, organism-based
[8] = Drug metabolism in mouse liver S9 fraction assessed as mono-hydroxylation mediated metabolite formation at 2 uM measured for 90 mins by LC-MS/MS analysis; type: ADME, subcellular; conditions: s9, 1.5 h
Plasmodium falciparum [9] = assay: Antimalarial activity against synchronized-schizont stage chloroquine-sensitive Plasmodium falciparum 3D7 assessed as delay in progression measured upto 60 hrs by Giemsa staining based light microscopic analysis; type: functional, organism-based
Plasmodium falciparum [10] = assay: Antimalarial activity against ring stage chloroquine-sensitive Plasmodium falciparum 3D7 assessed as growth inhibition incubated with compound for 6 hrs and measured 72 hrs post invasion by SYBR Green dye based analysis; type: functional, organism-based
[11] = Toxicity in mouse assessed as latency to fall off the rotating rod by measuring neuromuscular coordination index at 200 mg/kg by rotarod apparatus (reference value: 12.45 +/- 1.48 ); type: organism-based; conditions: in vivo
Plasmodium falciparum [12] = assay: Antimalarial activity against synchronized-ring stage chloroquine-sensitive Plasmodium falciparum 3D7 assessed as halt in parasite multiplication by measuring appearance of pyknotic bodies measured after 36 hrs by Giemsa staining based light microscopic analysis; type: functional, organism-based
[13] = Toxicity in mouse assessed as effect on water intake at 100 to 200 mg/kg measured for 7 days; type: organism-based; conditions: in vivo, 168 h, dose 100-200 mg/kg, time 7 day
Plasmodium falciparum [14] = assay: Antimalarial activity against chloroquine-sensitive Plasmodium falciparum NF54 assessed as inhibition of parasite growth by lactate dehydrogenase assay; type: functional, organism-based
[15] = Toxicity in mouse assessed as latency time to the central area at 200 mg/kg by open field test (reference value: 106.48 +/- 43.19 sec); type: organism-based; conditions: in vivo, 43 s
Plasmodium falciparum [16] = assay: Antimalarial activity against synchronized-ring stage chloroquine-sensitive Plasmodium falciparum 3D7 assessed as growth progression defect from ring to schizont stage measured upto 60 hrs post-treatment by Giemsa staining based light microscopic analysis; type: functional, organism-based
Plasmodium falciparum [17] = assay: Antimalarial activity against schizont stage chloroquine-sensitive Plasmodium falciparum 3D7 assessed as growth inhibition incubated with compound for 6 hrs and measured 72 hrs post invasion by SYBR Green dye based analysis; type: functional, organism-based
[18] = Toxicity in mouse assessed as cell necrosis in kidney at 100 to 200 mg/kg measured after 7 days by hematoxylin and eosin staining based analysis; type: organism-based; conditions: in vivo, 168 h, dose 100-200 mg/kg, time 7 day
[19] = Toxicity in mouse assessed as effect on exploratory activity at 100 to 200 mg/kg measured over 5 mins by open field arena test; type: organism-based; conditions: in vivo, dose 100-200 mg/kg
[20] = Stability of the compound in simulated gastric fluid at pH 1.2 at 1 uM measured after 120 mins by LC-MS/MS analysis; type: ADME; conditions: simulated gi fluid, pH 1.2, 2 h
Plasmodium falciparum [21] = assay: Antimalarial activity against ring stage chloroquine-sensitive Plasmodium falciparum 3D7 assessed as growth inhibition incubated for 72 hrs by SYBR Green dye based analysis; type: functional, organism-based; conditions: 3D7, 72 h
[22] = Metabolic stability in human liver S9 fraction assessed as intrinsic clearance at 2 uM measured 90 mins by LC-MS/MS analysis; type: ADME, subcellular; conditions: read-out: CLH
[23] = Toxicity in mouse assessed as cell necrosis in liver at 100 to 200 mg/kg measured after 7 days by hematoxylin and eosin staining based analysis; type: organism-based; conditions: in vivo, 168 h, dose 100-200 mg/kg, time 7 day
Plasmodium falciparum [24] = assay: Antimalarial activity against ring stage chloroquine-sensitive Plasmodium falciparum 3D7 assessed as inhibition of parasite growth by SYBR green I dye based assay; type: functional, organism-based
Plasmodium falciparum [25] = assay: Antimalarial activity against synchronized-ring stage chloroquine-sensitive Plasmodium falciparum 3D7 assessed as reduction in parasitemia measured upto 60 hrs post-treatment by Giemsa staining based light microscopic analysis (reference value: 3.9 %); type: functional; set-up: scale not given: the % may be the effect or the level left
Plasmodium falciparum [26] = assay: Synergistic antimalarial activity against chloroquine-sensitive Plasmodium falciparum 3D7 assessed as fractional inhibitory concentration incubated for 60 hrs in presence of chloroquine by SYBR Green staining based analysis; type: functional

O=C(Cn1cc(CN2CCN(c3ccnc4cc(Cl)ccc34)CC2)nn1)Nc1cccc([N+](=O)[O-])c1
Activity [1]: Non-Toxic
Time [2]: 56.23 s
selectivity ratio [3]: 160
Stability [4]: Stable
Activity (Plasmodium falciparum [5]): Active
inhibition [6]: 27.3%
Activity (Plasmodium berghei): Active
IC50 (Plasmodium falciparum [7]): 1.89 µM
Drug metabolism [8]: Metabolite_Detected
Activity (Plasmodium falciparum [9]): Active
IC50 (Plasmodium falciparum [10]): 10.2 µM
Activity_index [11]: 10.75
Activity (Plasmodium falciparum [12]): Active
Activity [13]: Non-Toxic
IC50 (Plasmodium falciparum [14]): 0.92 µM
Time [15]: 54.39 s
Activity (Plasmodium falciparum [16]): Active
IC50 (Plasmodium falciparum [17]): 3.09 µM
Activity [18]: Non-Toxic
Activity [19]: Non-Toxic
Stability [20]: Stable
IC50 (Plasmodium falciparum [21]): 0.96 µM
microsomal CLint at 2 µM [22]: 13.5 µL/min/mg
Activity [23]: Non-Toxic
IC50 (Plasmodium falciparum [24]): 0.97 µM
Activity (Plasmodium falciparum [25]): 1.03%
fractional inhibitory concentration index (FICI) (Plasmodium falciparum [26]): 0.5
